For 13 compounds, IC50 and binding rate results are on record in patent publication US12673041B2, “4-aminobut-2-enamide derivatives and salt thereof” (TAIHO PHARMACEUTICAL CO., LTD., priority 2019, dated 2026).

The target of assay [1] is T1, GMPPNP-bound KRAS G12C protein and cRAF RAS-binding domain (cRAF-RBD) (Homo sapiens, UniProt P01116, G12C).
T1 construct: made in house; host or cells: E. coli
In words: Inhibitory activity on interaction between KRAS G12C and cRAF (Alpha technology). It counts as biochemical. The conditions noted are these: GMPPNP-bound KRAS G12C incubated with compound at 25° C. for 1 hour, then cRAF-RBD, Alpha signal; read-out: IC50. How it is done: Interaction between recombinant K-Ras4B G12C mutant protein (amino acids 1-169, SEQ ID NO:2) and cRAF RAS-binding domain (cRAF-RBD, amino acids 50-132, Jena Biosciences GmbH) was measured using Alpha technology (PerkinElmer Inc.).
Recombinant KRAS G12C protein with an N-terminal His-tag was expressed in E. coli and purified by affinity chromatography. To prepare GTP-bound form and GDP-bound form of KRAS G12C protein, 50 μM KRAS G12C protein was incubated with 1 mM GMPPNP (Guanosine-5′-[(β,γ)-imido]triphosphate, Tetralithium salt) (Jena Bioscience GmbH) and 1 mM GDP, respectively, in a loading buffer (20 mM Tris-HCl (pH 7.5), 50 mM NaCl, 1 mM DTT and 2.5 mM EDTA) for 1 hour on ice. After the incubation, MgCl2 was added to a final concentration of 10 mM, followed by incubation at room temperature for 30 minutes. The mixture was allowed to pass through a NAP-5 column to remove free nucleotides and purified, and the resultant nucleotide-bound KRAS G12C protein was used for compound evaluation.
For the measurement of the inhibitory activity of compounds on interaction between KRAS G12C and cRAF-RBD, GMPPNP-bound KRAS G12C protein was incubated with various concentrations of compound in a reaction buffer (20 mM Tris-HCl (pH 7.5), 100 mM NaCl, 1 mM MgCl2, 1 mM TCEP, 0.1% Tween 20) at 25° C. for 1 hour. After the incubation, recombinant cRAF-RBD and Alpha detection reagents were added and incubated at room temperature for 1.5 hours for binding. Interaction 5 of KRAS G12C and cRAF-RBD was monitored by measuring Alpha signal. Inhibition % was calculated using the signal from the reaction without test compound (DMSO control) as 0% inhibition and the signal from the reaction using GDP-bound KRAS G12C in place of GMPPNP-bound KRAS G12C as 100% inhibition. IC50 values were calculated from dose titration curve using curve fitting by XLfit software (IDBS).

Assay [2] concerns the target Gppcp-bound recombinant K-Ras4B G12C mutant protein (amino acids 1-169, C51S/C80L/C118S) (Homo sapiens, UniProt P01116, C118S/C51S/C80L/G12C). Put plainly: KRASG12C binding assay (LC-MS compound binding rate). The conditions noted are these: test compound final concentration 0.5 μM, 25° C., 1 hour. How it is done: As test compounds for the KRASG12C binding assay, the compounds obtained in the “Preparation of Compounds” section were used. Sample solutions each containing a test compound were prepared in the form of a 10 mM DMSO solution.
Gppcp-bound recombinant K-Ras4B G12C mutant protein (amino acids 1-169, C51S/C80L/C118S, SEQ ID NO:1) was diluted with a buffer (1×TBS, 0.1 mM TCEP, 0.25 mM MgCl2, 50 μM Gppcp) to prepare a 50 nM protein solution. K-Ras4B is the major splicing variant of K-Ras. Amino acid sequence of residues 1 to 150 including the compounds' binding region of K-Ras4B is exactly same as that of K-Ras4A, the other splicing variant (Oncotarget. 2016 Jul. 19; 7(29): 46717-46733). A sample solution containing 10 mM test compound was diluted ten-fold with DMSO to make a 1 mM sample solution, and then diluted twenty-fold with DMSO to make a 50 μM sample solution. 1 μL of a 50 μM sample solution was added to 100 μL of a 50 nM protein solution to adjust the final concentration of a test compound to be 0.5 μM in the mixture. The mixtures were stored in an incubator at 25° C. for 1 hour, and 10 μL of a 1×TBS solution containing 2% formic acid was added to stop the reaction, followed by LC-MS measurement. LC-MS measurement was performed using Xevo G2-S Q-Tof manufactured by Waters, and reverse-phase chromatography was performed with a desalting column. A mass spectrum of positive ions was obtained by electrospray. For a mass spectrum, a spectrum of polyvalent ions was collectively converted to a molecular weight by using OpenLynx software by the MaxEnt technique, and a compound binding rate was calculated from the ratio of the signal intensity of a peak that corresponds to the molecular weight of the protein to the signal intensity of a peak that corresponds to the molecular weight of the protein conjugated with the compound.
The binding assay of the test compounds was conducted at a final concentration of 0.5 μM. A binding rate of 80% or more is rated “A”, a binding rate of 60% or more and less than 80% is rated “B”, a binding rate of 40% or more and less than 60% is rated “C”, a binding rate of 20% or more and less than 40% is rated “D”, and a binding rate of less than 20% is rated “E”. N.D.=not determined. Binding rate % is the ratio of KRAS signal intensity at the molecular weight of one molecule adduct to the sum of all the KRAS signal intensity (unbound form and adducts) in mass spectrum.
Thus, binding rate 100% means that only the one molecule adduct was observed without any unbound KRAS.

In general, IC50 refers to the point on the concentration scale where inhibition reaches its midpoint. `Cc1nc2c(Cl)c(-c3cccc(NC(=O)c4ccc(NC(=O)/C=C/CNC5CCC(F)(F)CC5)c(C#N)c4)c3)c(Cl)cc2n1C` [Example 20, (E)-3-cyano-N-(3-(4,6-dichloro-1,2-dimethyl-1H-benzo[d]imidazol-5-yl)phenyl)-4-(4-((4,4-difluorocyclohexyl)amino)but-2-enamido)benzamide]: in assay [1], the 50% inhibitory concentration (IC50) was found to be 150 nM. Moreover, the binding rate entry in assay [2] was “A (A binding rate of 80% or more is rated “A”)”.

Take `COCc1nc2cc(-c3cccc(NC(=O)c4ccc(NC(=O)/C=C/CN[C@H]5CC[C@H](OC)CC5)c(C#N)c4)c3)c(C(F)(F)F)cc2n1C` [Example 21, 3-cyano-4-((E)-4-(((1r,4r)-4-methoxycyclohexyl)amino)but-2-enamido)-N-(3-(2-(methoxymethyl)-1-methyl-6-(trifluoromethyl)-1H-benzo[d]imidazol-5-yl)phenyl)benzamide]: the IC50 in assay [1] was 220 nM. Also, the binding rate entry in assay [2] is on record as “A (A binding rate of 80% or more is rated “A”)”.

Turning to `COCc1nc2cc(-c3cccc(NC(=O)c4ccc(NC(=O)/C=C/CNC5C[C@H]6CC[C@@H](C5)O6)c(C#N)c4)c3)c(C(F)(F)F)cc2n1C` (stereo partly drawn) [Example 22, 4-((E)-4-(((1R,5S)-8-oxabicyclo[3.2.1]octan-3-yl)amino)but-2-enamido)-3-cyano-N-(3-(2-(methoxymethyl)-1-methyl-6-(trifluoromethyl)-1H-benzo[d]imidazol-5-yl)phenyl)benzamide], the IC50 in assay [1] came to 140 nM. Besides, the binding rate entry in assay [2] is recorded as “A (A binding rate of 80% or more is rated “A”)”.

With `CO[C@H](C)c1nc2cc(-c3cccc(NC(=O)c4ccc(NC(=O)/C=C/CN[C@H]5CC[C@H](OC)CC5)c(C#N)c4)c3)c(C(F)(F)F)cc2n1C` [Example 23, 3-cyano-4-((E)-4-(((1r,4r)-4-methoxycyclohexyl)amino)but-2-enamido)-N-(3-(2-((R)-1-methoxyethyl)-1-methyl-6-(trifluoromethyl)-1H-benzo[d]imidazol-5-yl)phenyl)benzamide], the IC50 in assay [1] is 220 nM. Further, the binding rate entry in assay [2] is on record as “A (A binding rate of 80% or more is rated “A”)”.

On to `COCc1nc2cc(-c3cccc(NC(=O)c4ccc(NC(=O)/C=C/CNC5(C)CCC6(CC5)OCCO6)c(C#N)c4)c3)c(C(F)(F)F)cc2n1C` [Example 24, (E)-3-cyano-N-(3-(2-(methoxymethyl)-1-methyl-6-(trifluoromethyl)-1H-benzo[d]imidazol-5-yl)phenyl)-4-(4-((8-methyl-1,4-dioxaspiro[4.5]decan-8-yl)amino)but-2-enamido)benzamide], for which the IC50 in assay [1] turned out to be 150 nM. In addition, the binding rate result in assay [2] is recorded as “A (A binding rate of 80% or more is rated “A”)”.

For the compound `COCc1nc2cc(-c3cccc(NC(=O)c4ccc(NC(=O)/C=C/CNC5CC6C(C5)C6(F)F)c(C#N)c4)c3)c(C(F)(F)F)cc2n1C` (centres unmarked) [Example 25, (E)-3-cyano-4-(4-((6,6-difluorobicyclo[3.1.0]hexan-3-yl)amino)but-2-enamido)-N-(3-(2-(methoxymethyl)-1-methyl-6-(trifluoromethyl)-1H-benzo[d]imidazol-5-yl)phenyl)benzamide], in assay [1], the IC50 worked out at 250 nM. The binding rate result in assay [2] was “A (A binding rate of 80% or more is rated “A”)”.

For `COCc1nc2cc(-c3cccc(NC(=O)c4ccc(NC(=O)/C=C/CNC5CCC5)c(C#N)c4)c3)c(C(F)(F)F)cc2n1C` [Example 26, (E)-3-cyano-4-(4-(cyclobutylamino)but-2-enamido)-N-(3-(2-(methoxymethyl)-1-methyl-6-(trifluoromethyl)-1H-benzo[d]imidazol-5-yl)phenyl)benzamide], in assay [1], the IC50 is 420 nM. Besides, the binding rate entry in assay [2] is “C (a binding rate of 40% or more and less than 60% is rated “C”)”.

For `COCc1nc2cc(-c3cccc(NC(=O)c4ccc(NC(=O)/C=C/CNC5CCCCC5)c(C#N)c4)c3)c(C(F)(F)F)cc2n1C` [Example 27, (E)-3-cyano-4-(4-(cyclohexylamino)but-2-enamido)-N-(3-(2-(methoxymethyl)-1-methyl-6-(trifluoromethyl)-1H-benzo[d]imidazol-5-yl)phenyl)benzamide], in assay [1], the IC50 amounted to 350 nM. Further, in assay [2], the binding rate entry is “B (a binding rate of 60% or more and less than 80% is rated “B”)”.

As for `CO[C@H]1C[C@H](NC/C=C/C(=O)Nc2ccc(C(=O)Nc3cccc(-c4cc5nc6n(c5cc4C(F)(F)F)CCC6)c3)cc2C#N)C1` [Example 28, 3-cyano-4-((E)-4-(((1r,3r)-3-methoxycyclobutyl)amino)but-2-enamido)-N-(3-(7-(trifluoromethyl)-2,3-dihydro-1H-benzo[d]pyrrolo[1,2-a]imidazol-6-yl)phenyl)benzamide], in assay [1], the IC50 was determined as 100 nM. Also, the binding rate result in assay [2] was “A (A binding rate of 80% or more is rated “A”)”.

With `CO[C@H]1CC[C@H](NC/C=C/C(=O)Nc2ccc(C(=O)c3ccc4c(-c5cc6ncn(C)c6cc5C(F)(F)F)cccn34)cc2)CC1` [Example 39, (E)-4-(((1r,4r)-4-methoxycyclohexyl)amino)-N-(4-(8-(1-methyl-6-(trifluoromethyl)-1H-benzo[d]imidazol-5-yl)indolizine-3-carbonyl)phenyl)but-2-enamide], the half-maximal inhibitory concentration (IC50) in assay [1] is 300 nM. Also, the binding rate entry in assay [2] is “A (A binding rate of 80% or more is rated “A”)”.

Regarding `COc1ccccc1-c1cccn2c(C(=O)c3ccc(NC(=O)/C=C/CN[C@H]4CC[C@H](OC)CC4)c(C#N)c3)ccc12` [Example 40, (E)-N-(2-cyano-4-(8-(2-methoxyphenyl)indolizine-3-carbonyl)phenyl)-4-(((1r,4r)-4-methoxycyclohexyl)amino)but-2-enamide], the IC50 in assay [1] worked out at 200 nM. In addition, the binding rate entry in assay [2] is “B (a binding rate of 60% or more and less than 80% is rated “B”)”.

Consider `Cn1cnc2cc(-c3cccn4c(C(=O)c5ccc(NC(=O)/C=C/[C@H]6CCCN6)c(C#N)c5)ccc34)c(C(F)(F)F)cc21` [Example 42, (R,E)-N-(2-cyano-4-(8-(1-methyl-6-(trifluoromethyl)-1H-benzo[d]imidazol-5-yl)indolizine-3-carbonyl)phenyl)-3-(pyrrolidin-2-yl)acrylamide], for which the IC50 in assay [1] came to 360 nM. Also, the binding rate result in assay [2] was “D (a binding rate of 20% or more and less than 40% is rated “D”)”.

For the compound `COc1cccc(F)c1-c1cccn2c(C(=O)c3ccc(NC(=O)/C=C/CN[C@H]4CC[C@H](OC)CC4)c(C#N)c3)ccc12` [Example 43, (E)-N-(2-cyano-4-(8-(2-fluoro-6-methoxyphenyl)indolizine-3-carbonyl)phenyl)-4-(((1r,4r)-4-methoxycyclohexyl)amino)but-2-enamide], in assay [1], the IC50 is 170 nM. The binding rate entry in assay [2] is “A (A binding rate of 80% or more is rated “A”)”.
